From US20250009737A1, “COMPOUNDS AND METHODS FOR THE TARGETED DEGRADATION OF ANDROGEN RECEPTOR” (Arvinas Operations, Inc., priority 2023, published 2025)

Tests used:
[1] = Metabolite profiling / stability in human plasma; format: in vitro ADME
Method: (§1) Metabolite profiling was conducted in incubations of Compound A (2 and 10 μM) with HLM (up to 60 min), human hepatocyte suspension (up to 240 min) and human plasma (up to 360 min). In addition, Compound A (2 μM) was incubated with recombinant human CYP enzymes CYP1A2, CYP2A6, CYP2B6, CYP2C8, CYP2C9, CYP2C19, CYP2D6, CYP2E1, CYP3A4 and CYP3A5.

CYP3A5 = CYP3A5 (Homo sapiens, UniProt P20815); experiment: Incubation with recombinant human CYP3A5; format: in vitro ADME
Chain of CYP3A5 (P20815 whole entry): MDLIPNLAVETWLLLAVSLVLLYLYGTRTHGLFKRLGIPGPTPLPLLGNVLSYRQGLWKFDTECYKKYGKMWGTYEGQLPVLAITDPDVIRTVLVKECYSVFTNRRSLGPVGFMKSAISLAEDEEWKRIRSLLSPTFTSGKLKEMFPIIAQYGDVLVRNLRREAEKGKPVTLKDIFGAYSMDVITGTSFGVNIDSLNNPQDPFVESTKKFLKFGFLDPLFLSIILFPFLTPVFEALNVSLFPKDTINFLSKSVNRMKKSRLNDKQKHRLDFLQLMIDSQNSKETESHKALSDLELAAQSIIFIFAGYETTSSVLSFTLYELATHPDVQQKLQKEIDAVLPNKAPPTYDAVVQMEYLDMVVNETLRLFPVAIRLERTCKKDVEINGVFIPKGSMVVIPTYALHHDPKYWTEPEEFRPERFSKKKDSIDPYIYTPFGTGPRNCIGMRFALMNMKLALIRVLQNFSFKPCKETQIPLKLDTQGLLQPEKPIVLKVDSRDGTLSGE
Method: as §1
The DDI potential of Compound A as a victim via CYP mediated pathways was examined in HLM, human hepatocyte suspensions, and human recombinant CYP enzymes.

% Parent at 0 Min, HP at 360 min [1]: 77.0%
Loss of Compound A in CYP3A5 (CYP3A5): ≤ 23%
SMILES: COc1cc(O[C@H]2C(C)(C)[C@H](NC(=O)c3ccc(N4CCC(CN5CCN(c6ccc(C(=O)N[C@H]7CCC(=O)NC7=O)c(F)c6)CC5)CC4)cc3)C2(C)C)ccc1C#N [Compound A, 4-(4-((1-(4-(((1R,3R)-3-(4-cyano-3-methoxyphenoxy)-2,2,4,4-tetramethylcyclobutyl)carbamoyl)phenyl)piperidin-4-yl)methyl)piperazin-1-yl)-N—((S)-2,6-dioxopiperidin-3-yl)-2-fluorobenzamide]
